Measured values as given in paper PMC4805166, “Synthetic Cyclolipopeptides Selective against Microbial, Plant and Animal Cell Targets by Incorporation of D-Amino Acids or Histidine” (PLoS ONE, 2016).
“And” between values parts separate entries of the source, which are not always exact repeats. Identical values can stand only once. Like-named read-outs stand apart in the source and are kept apart here. Where a SMILES comes first, the peptide text is derived from it. [ ]: non-standard residue; d: D form. The star is where a group is joined. Oleoyl = CCCCCCCC/C=C\CCCCCCCC(=O)*; Palmitoyl = CCCCCCCCCCCCCCCC(=O)*; Pentanoyl(4-Me) = CC(C)CCC(=O)*; Lauroyl = CCCCCCCCCCCC(=O)*; Octanoyl = CCCCCCCC(=O)*; X1 = O=C(CCCCCCCCCCCO)*; Hexanoyl = CCCCCC(=O)*; Pentanoyl = CCCCC(=O)*; Butyryl = CCCC(=O)*

Tests used:
[1] = test system: Pseudomonas syringae pv. syringae EPS94; format: cell-based; details: 48 h
Procedure: (§1) The following plant pathogenic bacterial strains were used: Erwinia amylovora PMV6076 (Institut National de la Recherche Agronomique, Angers, France), Pseudomonas syringae pv. syringae EPS94 (Institut de Tecnologia Agroalimentària, Universitat de Girona, Spain) and Xanthomonas axonopodis pv. vesicatoria 2133–2 (Instituto Valenciano de Investigaciones Agrarias, Valencia, Spain). All bacteria were stored in Luria Bertani (LB) broth supplemented with glycerol (20%) and maintained at -80°C. Bacteria were scrapped from LB agar after growing for 24–48 h at 25°C. The cell material was suspended in sterile water to obtain a suspension of 10^8 CFU mL^-1.
(§2) Lyophilized peptides were solubilized in sterile Milli-Q water to a final concentration of 1 mM and filter sterilized through a 0.22-μm pore filter. For minimum inhibitory concentration (MIC) assessment, dilutions of the compounds were made to obtain a stock concentration of […]. For antibacterial activity twenty microlitres of each dilution were mixed in a microtiter plate well with 20 μL of the corresponding suspension of the bacterial indicator, 160 μL of Trypticase Soy Broth (TSB) (BioMèrieux, France) to a total volume of 200 μL. For antifungal activity 20 μL of each stock solution were mixed in a microtiter plate well with 80 μL of the corresponding suspension of the fungal pathogen and 100 μL of double concentrated PDB to a total volume of 200 μL containing 0.003% w/v of choramphenicol.
(§3) Three replicates for each strain, compound and concentration were used. Microbial growth was determined by optical density measurement at 600 nm (Bioscreen C, Labsystem, Helsinki, Finland). For antibacterial activity microplates were incubated at 25°C with 20 sec shaking before hourly absorbance measurement for 48 h. For antifungal activity microplates were incubated at 20°C with 1 min shaking before absorbance measurement that were done every two hours during seven days. The experiment was repeated twice. The MIC was taken as the lowest compound concentration with no growth at the end of the experiment.

[2] = test system: Xanthomonas axonopodis pv. vesicatoria 2133–2; format: cell-based; details: TSB, 25°C, 48 h, OD 600 nm; tested at 3.1, 6.2, 12.5, 25, 50 μM; three replicates, experiment repeated twice; MIC = lowest concentration with no growth
Procedure: as §1, §2, §3

[3] = test system: Erwinia amylovora PMV6076; experiment: MIC, in vitro growth inhibition; format: cell-based; details: TSB, 25°C, 48 h, OD 600 nm; tested at 3.1, 6.2, 12.5, 25, 50 μM; three replicates, experiment repeated twice; MIC = lowest concentration with no growth
Procedure: as §1, §2, §3

[4] = test system: Fusarium oxysporum f. sp. lycopersici FOL 3 race 2; experiment: MIC, antifungal growth inhibition; format: cell-based
Procedure: Fusarium oxysporum f. sp. lycopersici FOL 3 race 2 (ATCC 201829, American Type Culture Collection) was used as fungal pathogen. The strain was cultured on potato dextrose agar (PDA) plates (Difco) and microconidia were obtained after growth at 25°C. The concentration of conidia was determined using a hemacytometer and adjusted to 10^4 conidia mL^-1.
as §2, §3

[5] = test system: erythrocyte suspensions of horse blood; details: horse erythrocytes 5% vol/vol, TRIS buffer pH 7.2, 1 h at 37°C, absorbance 540 nm, relative to melittin 100 μM, ± confidence interval (α = 0.05); for Hemolysis (%) 150 µM: 150 µM peptide; for Hemolysis (%) 250 µM: 250 µM peptide;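 for all read-outs here: Read-out is hemoglobin release into the supernatant, with a buffer-only blank subtracted as the 0% baseline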
[6] = PDB with 0.003% chloramphenicol, 20°C, seven days, OD 600 nm, tested at 3.1, 6.2, 12.5, 25, 50 μM, three replicates, repeated twice

Compound	MIC Pss [1]	MIC Xav [2]	MIC Ea [3]	MIC Fo [4, 6]	Hemolysis (%) 150 µM [5]	Hemolysis (%) 250 µM [5]	MIC Fo [4]	MIC Pss ([1]; TSB, 25°C, OD 600 nm, tested at 3.1, 6.2, 12.5, 25, 50 μM, three replicates, experiment repeated twice, MIC = lowest concentration with no growth)
CCCCCCCC(=O)NCCCC[C@@H]1NC(=O)[C@H](CCCCN)NC(=O)[C@H](CC(C)C)NC(=O)[C@H](CCCCN)NC(=O)[C@H](CCCCN)NC(=O)[C@H](CCC(N)=O)NC(=O)[C@H](CC(C)C)NC(=O)[C@H](CCCCN)NC(=O)[C@H](CCCCN)NC(=O)[C@H](Cc2ccccc2)NC1=O [BPC498, c(KKLKK(CO-C7H15)FKKLQ)] (cyclo(FKKLQKKLKK(Octanoyl)))	12.5 to 25 µM	6.2 to 12.5 µM	25 to 50 µM	3.1 to 6.2 µM	78 ± 4%	100 ± 12%	–	–
CCCCCCCCCCCCCCCC(=O)NCCCC[C@@H]1NC(=O)[C@H](CCCCN)NC(=O)[C@H](CC(C)C)NC(=O)[C@H](CCCCN)NC(=O)[C@H](CCCCN)NC(=O)[C@H](CCC(N)=O)NC(=O)[C@H](CC(C)C)NC(=O)[C@H](CCCCN)NC(=O)[C@H](CCCCN)NC(=O)[C@H](Cc2ccccc2)NC1=O [BPC502, c(KKLKK(CO-C15H31)FKKLQ)] (cyclo(FKKLQKKLKK(Palmitoyl)))	>50 µM	>50 µM	>50 µM	>50 µM	78 ± 1%	99 ± 2%	–	–
CC(C)C[C@@H]1NC(=O)[C@H](CCCCN)NC(=O)[C@H](CCCCN)NC(=O)[C@H](CCC(N)=O)NC(=O)[C@H](CC(C)C)NC(=O)[C@H](CCCCN)NC(=O)[C@H](CCCCN)NC(=O)[C@H](Cc2ccccc2)NC(=O)[C@H](CCCCNC(=O)CCCCCCCCCCCO)NC(=O)[C@H](CCCCN)NC1=O [BPC524, c(KKLKK(CO-C11H22OH)FKKLQ)] (cyclo(FKKLQKKLKK(X1)))	12.5 to 25 µM	6.2 to 12.5 µM	25 to 50 µM	12.5 to 25 µM	100 ± 8%	100 ± 6%	–	–
CCCCC(=O)NCCCC[C@@H]1NC(=O)[C@H](CCCCN)NC(=O)[C@H](CC(C)C)NC(=O)[C@H](CCCCN)NC(=O)[C@H](CCCCN)NC(=O)[C@H](CCC(N)=O)NC(=O)[C@H](CC(C)C)NC(=O)[C@H](CCCCN)NC(=O)[C@H](CCCCN)NC(=O)[C@H](Cc2ccccc2)NC1=O [BPC526, c(KKLKK(CO-C4H9)FKKLQ)] (cyclo(FKKLQKKLKK(Pentanoyl)))	12.5 to 25 µM	<3.1 µM	12.5 to 25 µM	6.2 to 12.5 µM	62 ± 2%	78 ± 3%	–	–
CCCCCCCCCCCC(=O)NCCCC[C@@H]1NC(=O)[C@H](CCCCN)NC(=O)[C@H](CC(C)C)NC(=O)[C@H](CCCCN)NC(=O)[C@H](CCCCN)NC(=O)[C@H](CCC(N)=O)NC(=O)[C@H](CC(C)C)NC(=O)[C@H](CCCCN)NC(=O)[C@H](CCCCN)NC(=O)[C@H](Cc2ccccc2)NC1=O [BPC530, c(KKLKK(CO-C11H23)FKKLQ)] (cyclo(FKKLQKKLKK(Lauroyl)))	12.5 to 25 µM	6.2 to 12.5 µM	12.5 to 25 µM	6.2 to 12.5 µM	89 ± 7%	91 ± 9%	–	–
CCCCCC(=O)NCCCC[C@@H]1NC(=O)[C@H](CCCCN)NC(=O)[C@H](Cc2ccccc2)NC(=O)[C@H](CCCCN)NC(=O)[C@H](CCCCN)NC(=O)[C@H](CC(C)C)NC(=O)[C@H](CCCCN)NC(=O)[C@H](CCCCN)NC(=O)[C@H](CCC(N)=O)NC(=O)[C@H](CC(C)C)NC1=O [BPC582] (cyclo(FKK(Hexanoyl)LQKKLKK))	6.2 to 12.5 µM	6.2 to 12.5 µM	12.5 to 25 µM	12.5 to 25 µM	92 ± 3%	96 ± 10%	–	–
CCCCCC(=O)NCCCC[C@@H]1NC(=O)[C@H](Cc2ccccc2)NC(=O)[C@H](CCCCN)NC(=O)[C@H](CCCCN)NC(=O)[C@H](CC(C)C)NC(=O)[C@H](CCCCN)NC(=O)[C@H](CCCCN)NC(=O)[C@H](CCC(N)=O)NC(=O)[C@H](CC(C)C)NC(=O)[C@H](CCCCN)NC1=O [BPC584, c(KKLKKFK(CO-nC5H11)KLQ)] (cyclo(FK(Hexanoyl)KLQKKLKK))	12.5 to 25 µM	6.2 to 12.5 µM	25 to 50 µM	25 to 50 µM	72 ± 5%	97 ± 12%	–	–
CCCCCC(=O)NCCCC[C@@H]1NC(=O)[C@H](CC(C)C)NC(=O)[C@H](CCCCN)NC(=O)[C@H](CCCCN)NC(=O)[C@H](CCC(N)=O)NC(=O)[C@H](CC(C)C)NC(=O)[C@H](CCCCN)NC(=O)[C@H](CCCCN)NC(=O)[C@H](Cc2ccccc2)NC(=O)[C@H](CCCCN)NC1=O [BPC586, c(KKLK(CO-nC5H11)KFKKLQ)] (cyclo(FKKLQKKLK(Hexanoyl)K))	6.2 to 12.5 µM	6.2 to 12.5 µM	12.5 to 25 µM	12.5 to 25 µM	92 ± 9%	95 ± 20%	–	–
CCCCCCCC/C=C\CCCCCCCC(=O)NCCCC[C@@H]1NC(=O)[C@H](CCCCN)NC(=O)[C@H](CC(C)C)NC(=O)[C@H](CCCCN)NC(=O)[C@H](CCCCN)NC(=O)[C@H](CCC(N)=O)NC(=O)[C@H](CC(C)C)NC(=O)[C@H](CCCCN)NC(=O)[C@H](CCCCN)NC(=O)[C@H](Cc2ccccc2)NC1=O [BPC622, c(KKLKK(CO-C17H33)FKKLQ)] (cyclo(FKKLQKKLKK(Oleoyl)))	25 to 50 µM	3.1 to 6.2 µM	>50 µM	>50 µM	91 ± 2%	97 ± 3%	–	–
CCCCCC(=O)NCCCC[C@@H]1NC(=O)[C@H](CCCCN)NC(=O)[C@H](CC(C)C)NC(=O)[C@H](CCCCN)NC(=O)[C@H](CCCCN)NC(=O)[C@H](CCC(N)=O)NC(=O)[C@H](CC(C)C)NC(=O)[C@H](CCCCN)NC(=O)[C@H](CCCCN)NC(=O)[C@@H](Cc2ccccc2)NC1=O [BPC624, c(KKLKK(CO-nC5H11)fKKLQ)] (cyclo(KKLKK(Hexanoyl)[dF]KKLQ))	12.5 to 25 µM	6.2 to 12.5 µM	25 to 50 µM	6.2 to 12.5 µM	53 ± 5%	64 ± 9%	–	–
CC(C)CCC(=O)NCCCC[C@@H]1NC(=O)[C@H](CCCCN)NC(=O)[C@H](CC(C)C)NC(=O)[C@H](CCCCN)NC(=O)[C@H](CCCCN)NC(=O)[C@H](CCC(N)=O)NC(=O)[C@H](CC(C)C)NC(=O)[C@H](CCCCN)NC(=O)[C@H](CCCCN)NC(=O)[C@@H](Cc2ccccc2)NC1=O [BPC626, c(KKLKK(CO-isoC5H11)fKKLQ)] (cyclo(KKLKK(Pentanoyl(4-Me))[dF]KKLQ))	12.5 to 25 µM	6.2 to 12.5 µM	25 to 50 µM	6.2 to 12.5 µM	51 ± 7%	54 ± 4%	–	–
CCCC(=O)NCCCC[C@H]1NC(=O)[C@H](CCCCN)NC(=O)[C@H](CC(C)C)NC(=O)[C@H](CCCCN)NC(=O)[C@H](CCCCN)NC(=O)[C@H](CCC(N)=O)NC(=O)[C@H](CC(C)C)NC(=O)[C@H](CCCCN)NC(=O)[C@H](CCCCN)NC(=O)[C@H](Cc2ccccc2)NC1=O [BPC702, c(KKLKk(CO-C3H7)FKKLQ)] (cyclo(FKKLQKKLK[dK](Butyryl)))	–	–	25 to 50 µM	< 12.5 µM and 3.1 to 6.2 µM	1 ± 0.1%	–	3.1 to 6.2 µM	–
c(KKLKK(CO-C6H13)FKKLQ) [BPC592]	–	6.2 to 12.5 µM	25 to 50 µM	12.5 to 25 µM	–	–	–	12.5 to 25 µM
